For data set [1], the system named is Rothia kristinae (DSM 20032). Put plainly: Minimal inhibitory concentration (MIC), broth microdilution. Format: cell-based. To be noted: Table 3 of supplement, n=3; unit inferred; 37 ± 1 °C. On the procedure:
(§1) Minimal inhibitory concentrations (MICs) were determined against Gram-positive Enterococcus faecium vanA (UL 602570*, clinical isolate from Institute for Medical Microbiology and Hygiene, Heidelberg University Hospital, Heidelberg, Germany), Staphylococcus aureus (ATCC 25923), Rothia kristinae (DSM 20032), and Gram-negative Acinetobacter bohemicus (DSM 100419) (all obtained from the Department of Infectious Diseases, Medical Microbiology and Hygiene, Heidelberg University, Heidelberg, Germany) in a 96-well polypropylene plate (650261 Greiner Bio-One GmbH, Frickenhausen, Germany) according to European Committee on Antimicrobial Susceptibility Testing (EUCAST) and The Clinical & Laboratory Standards Institute (CLSI) guidelines. Briefly, the stock solutions of the peptide conjugates in water were adjusted to a concentration of 1.28 mg/mL. Starting with the highest concentration of 64 μg/mL in 96-well polypropylene plates, dilution series in cation-adjusted Mueller–Hinton broth (MHB II; Sigma Aldrich, Steinheim, Germany) were performed, resulting in the lowest concentration of 0.125 μg/mL. A logarithmic growing bacterial culture was adjusted to a McFarland corresponding to 1 × 10^8 cfu/mL using a McFarland counter (DensiCHEK® plus, bioMerieux, Marcy-l’Étoile, France). Finally, a bacterial suspension of 1 × 10^6 cfu/mL (further diluted in MHB II) was added to each peptide-conjugate concentration. Thus, the final bacterial concentration in each well was 5 × 10^5 cfu/mL. The bacteria were incubated at 37 ± 1 °C (for A. bohemicus: 30 ± 1 °C) overnight and the bacterial growth was analyzed after 18 to 20 h. The MIC was defined as the lowest concentration of substance without any visible growth. Vancomycin and colistin sulfate were purchased from Sigma-Aldrich Chemie GmbH, München, Germany and Carl Roth GmbH, Karlsruhe, Germany.
On the technique in general: Broth dilution looks for growth in wells or tubes with falling amounts of substance.

Data set [2] deals with Acinetobacter bohemicus (DSM 100419). Described as above. The data set is classed as cell-based. Also noted: key to MIC value: MIC in μg/mL (lowest concentration without visible growth). As to conditions: 30 ± 1 °C; for MIC value: Table S2, n=3, no unit given (main text uses µg/mL). The protocol:
as §1

Data set [3] has the same test system. Put plainly: Minimal bactericidal concentration (MBC). The data set is classed as cell-based. As to conditions: Table S2, n=3; unit inferred; lowest concentration killing 99.9% of the inoculum; agar 24 h, 30 ± 1 °C. The protocol: (§2) Minimal bactericidal concentrations (MBCs) were determined by pipetting 3 µL of each broth dilution solution without visible growth onto a new agar plate. The agar plates were incubated at 37 ± 1 °C (for A. bohemicus: 30 ± 1 °C) for 24 h and were again analyzed with respect to bacterial growth. MBC is defined as the lowest concentration killing 99.9% of the inoculum.

For data set [4], the system named is Rothia kristinae (DSM 20032). Put plainly: Minimal bactericidal concentration (MBC). As to conditions: Table 3 of supplement, n=3; unit inferred; lowest concentration killing 99.9% of the inoculum; agar 24 h, 37 ± 1 °C. The data set is classed as cell-based. On the procedure:
as §2

For data set [5], the system named is Rothia kristinae (DSM 20032). Put plainly: Time-kill studies. Format: cell-based. To be noted: for change in number of cfu/mL: 0.5 × MIC, 0 to 8 h; for change in number of cfu/mL / time until all bacteria killed / no detectable cfu / mode of action: n = 3; for time until all bacteria killed: n=3; for time until all bacteria killed / no detectable cfu / mode of action: 4 × MIC; for time until all bacteria killed / no detectable cfu: 1 × 10^6 cfu/mL in MHB II, 37 °C. On the procedure:
Time–kill studies were performed in accordance with CLSI guidelines. Therefore, Rothia kristinae DSM 20032 was adjusted to a concentration of 1 x 10^8 cfu/mL and further diluted to 1 × 10^6 cfu/mL in cation-adjusted MHB II. According to the previous determined MIC values of Pep19-4LF, C11-Pep19-4LF, and bacitracin (positive control) (Sigma Aldrich Chemie GmbH, München, Germany), samples were taken for 4 × MIC, 2 × MIC, 1 × MIC, and 0.5 × MIC after 30 min, 1 h, 2 h, 4 h, and 8 h. These samples were diluted in sterile saline and 10 µL of each sample was loaded onto agar plates. A bacterial suspension of 1 × 10^6 cfu/mL served as a growth control. Incubation occurred at 37 ± 1 °C and all counted colonies were recalculated to the colony number in the original inoculum.

The format of data set [6] is physicochemical. An excerpt: The high MIC value of Pep19-short indicates the importance of a hydrophobic moiety for this synthetic antimicrobial peptide. […] If the length of the fatty acid is too short, the interaction between the peptide conjugate and components of the bacterial cell membrane might be unfavorable, thus leading to loss of efficiency. Fatty acids of medium chain length enable a stable plateau of low MIC values, indicating a more efficient interaction between the peptide conjugate and bacterial cells. […] A detailed interaction between Pep19 peptides and membrane-bound toxins was previously described by Correa et al.. […] A hypothesized mechanism for this interaction represents the reorganization of the bacterial membrane leading in an inability to maintain the osmotic pressure. Here, the positively-charged amino acids of the peptide conjugate might interact with the negatively-charged compounds of the bacterial cell wall and the hydrophobic part interacts with hydrophobic lipids of the bacterial membrane. Several mechanisms for a membrane disruption by amphiphilic peptides were further described by Sato and Feix. With respect to the parent peptide Pep19-4LF, the hydrophobic moiety was located at the C-terminus. As the synthesis leads to peptides that are linked to the resin via their C-terminus, the fatty acids were linked to the free N-terminus of the peptide. […]

For data set [7] the following is noted: rat, in vivo, iv.
Description: For this purpose, the tyrosine residues of the peptides were radiolabeled with ^125I (Hartmann Analytic GmbH, Braunschweig, Germany) using the chloramine-T method [28]. Free ^125I was separated by preparative HPLC as previously described by Schieck et al. [22]. Approximately 2 to 4 MBq of the radiolabeled peptides was injected intravenously into the tail vein and images were recorded immediately post injection and after 1 h, 2 h, 3 h, 5 h, and 24 h. Scintigraphical images were obtained by using a γ-camera (Gamma Imager, Biospace Lab, Paris, France).
For data set [8], the system named is Enterococcus faecium (UL602570*, clinical isolate, vanA-resistant). Put plainly: Minimal inhibitory concentration (MIC), broth microdilution. The data set is classed as cell-based. To be noted: cation-adjusted MHB II, 5 × 10^5 cfu/mL, 37 ± 1 °C, read after 18 to 20 h, n = 3. The protocol:
as §1

Data set [9] relates to Staphylococcus aureus (ATCC 25923). Described as above. Format: cell-based. To be noted: cation-adjusted MHB II, 5 × 10^5 cfu/mL, 37 ± 1 °C, read after 18 to 20 h, n = 3. The protocol: as §1
The next data set deals with red blood cells. The data set is classed as cell-based, human. On the procedure: A hemolysis assay was performed using heparinized blood for Pep19-4LF, Pep19-2.5, C6-Pep19-short, C11-Pep19-short, and C18-Pep19-short to test the toxicity against red blood cells and selectivity against bacterial cells. A 600 µM stock solution of each peptide was prepared in 0.9% NaCl. Heparinized blood was taken from three individual fasted, healthy volunteers. To purify the erythrocytes, the blood was centrifuged at 2500 rpm for 10 min and the supernatant was removed. The cell-pellet was resuspended in standard PBS. The centrifugation step was repeated for three times until the supernatant was visibly clear. A 96-well v-bottom plate (Greiner Bio-One International GmbH, Kremsmünster, Austria) was loaded as follows: row 1 (A1-H1) was preloaded with 100 µL of 600 µM peptide stock solution and row 12 (A12-H12) was preloaded with 50 µL 10% Triton X-100 (PerkinElmer, Boston, USA) and served as a positive control. […] Fifty µL of the supernatant was then transferred to a new 96-well flat-bottom plate (Greiner Bio-One International GmbH, Kremsmünster, Austria) and the absorbance was measured at a wavelength of 554 nm, using an Infinite M200 PRO microplate reader (Tecan Trading, Maennedorf).
Hemolysis was calculated with the following equation: Hemolysis [%]= Aconjugate− Ablank/ATriton− Ablank

Values after ≈ are worked out from the molar mass of the structure shown. Peptide text beside a SMILES is read from it. * marks the point of attachment. Hexanoyl = CCCCCC(=O)*

With C11-GKKYRRFRWKFKGK [C11-Pep19-short], the MIC value in data set [1] is 4 µg/mL; in [2], 4. In addition, the MBC value in data set [3] and in [4] was 4 µg/mL each time. Also, in [5], the “change in number of cfu/mL” value is listed as “only a small decrease in the number of cfu/mL”. In addition, the “time until all bacteria killed” value is 4 h in data set [5] (1 × MIC) and 0.5 h in [5] (2 × MIC). The “time until all bacteria killed / no detectable cfu” value in data set [5] is ≤ 30 min. For the same compound, the mode of action result in data set [5] was “fast and bactericidal mode of action”. The solubility in water result in data set [6] is “high solubility in water”. Besides, the “speed of elimination compared among the peptides” value in data set [7] is “faster excretion from the body”.

Turning to GKKYRRFRWKFKGKLFLFG-NH2 [Pep19-4LF], the minimal inhibitory concentration (MIC) is 8 µg/mL in [8]; 32 µg/mL in data set [9]; 8 µg/mL in [2] (broth microdilution, cation-adjusted MHB II, 5 × 10^5 cfu/mL, read after 18 to 20 h, n = 3). In addition, the MIC value in data set [1] worked out at 8 µg/mL; in [2], 8. Also, the MBC value in data set [3] and in [4] was 8 µg/mL in each case. Further, in data set [5], the “change in number of cfu/mL” value is “only a small decrease in the number of cfu/mL”. Further, the “time until all bacteria killed” value in data set [5] (1 × MIC) was > 8 h; in data set [5] (2 × MIC), 1 h. Further, the “time until all bacteria killed / no detectable cfu” value in data set [5] is recorded as 30 min. The mode of action entry in data set [5] is given as “bactericidal mode of action”. Besides, in [6], the solubility in water entry is given as “very low solubility in water”. The “speed of elimination compared among the peptides” value in data set [7] is on record as “slowest elimination”.

With `CCCCCC(=O)NCC(=O)N[C@@H](CCCCN)C(=O)N[C@@H](CCCCN)C(=O)N[C@@H](Cc1ccc(O)cc1)C(=O)N[C@@H](CCCNC(=N)N)C(=O)N[C@@H](CCCNC(=N)N)C(=O)N[C@@H](Cc1ccccc1)C(=O)N[C@@H](CCCNC(=N)N)C(=O)N[C@@H](Cc1c[nH]c2ccccc12)C(=O)N[C@@H](CCCCN)C(=O)N[C@@H](Cc1ccccc1)C(=O)N[C@@H](CCCCN)C(=O)NCC(=O)N[C@@H](CCCCN)C(N)=O` [C6-Pep19-short] (Hexanoyl-GKKYRRFRWKFKGK-NH2), the MIC value turned out to be 16 µg/mL (≈ 8.07 µM) in data set [1] and 16 in data set [2]. Besides, the values for the MBC value in data set [3] and in data set [4] were 16 µg/mL (≈ 8.07 µM) and 32 µg/mL (≈ 16.1 µM), respectively. Moreover, in the data set with red blood cells, the hemolytic activity entry is recorded as “no hemolytic activity”.

In general, MIC refers to the lowest concentration found to suppress growth.

The values are drawn from PMC7760514, “Fatty Acid Conjugation Leads to Length-Dependent Antimicrobial Activity of a Synthetic Antibacterial Peptide (Pep19-4LF)” (Antibiotics, 2020).
